# Results: PMC4114018 (Science signaling, 2013)
# Experiments:
# [1] = target: mouse GPR17 (mGPR17) (Mus musculus, UniProt Q6NS65); test: label-free DMR and second messenger assays, HEK293 cells; assay type: cell-based; details: agonist
# [2] = target: rat GPR17 (rGPR17) (Rattus norvegicus, UniProt Q09QM4); test: as above; assay type: cell-based; details: agonist
# Sequence of rat GPR17 (rGPR17) (Q09QM4 whole entry): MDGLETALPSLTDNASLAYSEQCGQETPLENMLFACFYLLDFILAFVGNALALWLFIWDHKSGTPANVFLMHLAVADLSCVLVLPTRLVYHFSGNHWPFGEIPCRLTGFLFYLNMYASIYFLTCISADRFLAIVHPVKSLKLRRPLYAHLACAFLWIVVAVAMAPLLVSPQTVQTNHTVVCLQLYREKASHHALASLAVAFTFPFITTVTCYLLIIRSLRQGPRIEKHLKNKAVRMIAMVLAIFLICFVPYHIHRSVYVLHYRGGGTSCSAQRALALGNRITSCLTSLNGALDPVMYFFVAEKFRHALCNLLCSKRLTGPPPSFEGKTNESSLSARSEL
# Sequence of mouse GPR17 (mGPR17) (Q6NS65 whole entry): as the sequence (Q09QM4 whole entry) above, with D2N, T6A, A15S, S270A counted along it
smiles,measurement,setting,value
"O=C(O)CCc1c(C(=O)O)[nH]c2cc(Cl)cc(Cl)c12 [compound 2, 2-carboxy-4,6-dichloro-1H-indole-3-propionic acid]",EC50,[1],concentration-dependent activation of rGPR17 and mGPR17 was observed
same,EC50,[2],concentration-dependent activation of rGPR17 and mGPR17 was observed
